Like-named read-outs stand apart in the source and are kept apart here.
Legend:
Format in all cases: binding
[1] = biological target: kinases (KINOMEscan panel) (Homo sapiens, UniProt P42336, C420R); details: PIK3CA(C420R); NEW KINOMEscan
[2] = biological target: kinases (KINOMEscan panel) (Homo sapiens, UniProt P48729); details: CSNK1A1; NEW KINOMEscan
[3] = biological target: T1, kinases (KINOMEscan panel) (Homo sapiens, UniProt Q12866); details: kinase MERTK; NEW KINOMEscan
T1 sequence (Q12866 21-999): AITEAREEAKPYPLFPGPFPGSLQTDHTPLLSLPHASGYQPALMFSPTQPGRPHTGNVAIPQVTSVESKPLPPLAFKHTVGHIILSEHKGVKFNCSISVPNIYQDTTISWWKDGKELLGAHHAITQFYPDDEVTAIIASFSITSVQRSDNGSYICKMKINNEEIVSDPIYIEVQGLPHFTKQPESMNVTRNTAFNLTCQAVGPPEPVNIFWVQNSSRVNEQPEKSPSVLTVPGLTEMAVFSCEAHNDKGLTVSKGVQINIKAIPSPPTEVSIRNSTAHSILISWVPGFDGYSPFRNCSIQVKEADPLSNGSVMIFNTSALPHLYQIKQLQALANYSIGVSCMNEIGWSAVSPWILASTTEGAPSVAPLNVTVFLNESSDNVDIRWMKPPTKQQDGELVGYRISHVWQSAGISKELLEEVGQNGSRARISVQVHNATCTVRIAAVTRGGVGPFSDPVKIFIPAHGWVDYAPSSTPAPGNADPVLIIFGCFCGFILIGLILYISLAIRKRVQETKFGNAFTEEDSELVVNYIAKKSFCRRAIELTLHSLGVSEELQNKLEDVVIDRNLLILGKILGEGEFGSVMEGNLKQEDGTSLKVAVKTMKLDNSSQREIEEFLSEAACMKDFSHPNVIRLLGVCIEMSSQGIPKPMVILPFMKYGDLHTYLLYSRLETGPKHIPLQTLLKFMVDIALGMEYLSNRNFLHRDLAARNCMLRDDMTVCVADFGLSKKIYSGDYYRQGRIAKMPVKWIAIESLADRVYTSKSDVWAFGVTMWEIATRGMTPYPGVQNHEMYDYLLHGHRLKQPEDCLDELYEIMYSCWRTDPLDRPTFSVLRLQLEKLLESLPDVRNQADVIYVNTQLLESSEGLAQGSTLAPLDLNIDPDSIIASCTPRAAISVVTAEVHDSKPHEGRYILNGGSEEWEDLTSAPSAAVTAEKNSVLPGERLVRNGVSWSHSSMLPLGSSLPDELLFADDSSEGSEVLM

[4] = biological target: kinases (KINOMEscan panel) (Homo sapiens, UniProt Q14680); details: kinase MELK; NEW KINOMEscan
Sequence of kinases (KINOMEscan panel) (Homo sapiens, UniProt Q14680) (Q14680 whole entry): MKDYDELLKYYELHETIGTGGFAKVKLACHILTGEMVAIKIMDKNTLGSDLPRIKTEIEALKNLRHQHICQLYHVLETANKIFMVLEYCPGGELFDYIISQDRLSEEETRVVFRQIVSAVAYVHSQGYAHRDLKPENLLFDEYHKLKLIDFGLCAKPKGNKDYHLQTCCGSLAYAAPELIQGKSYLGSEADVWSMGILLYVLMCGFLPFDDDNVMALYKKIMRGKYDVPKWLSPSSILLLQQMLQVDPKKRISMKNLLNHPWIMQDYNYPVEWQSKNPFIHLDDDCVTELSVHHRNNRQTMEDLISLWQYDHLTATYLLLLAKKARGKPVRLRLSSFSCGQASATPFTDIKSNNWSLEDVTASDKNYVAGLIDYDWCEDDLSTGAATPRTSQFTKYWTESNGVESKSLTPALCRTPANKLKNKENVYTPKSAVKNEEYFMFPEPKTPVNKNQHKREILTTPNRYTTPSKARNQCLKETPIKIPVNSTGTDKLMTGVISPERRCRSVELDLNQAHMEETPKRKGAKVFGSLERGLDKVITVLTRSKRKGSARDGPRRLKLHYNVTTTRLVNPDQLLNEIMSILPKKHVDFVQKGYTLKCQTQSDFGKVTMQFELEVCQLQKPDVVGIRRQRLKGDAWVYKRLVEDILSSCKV

[5] = biological target: kinases (KINOMEscan panel) (Homo sapiens, UniProt Q5S007); details: NEW KINOMEscan
Sequence of kinases (KINOMEscan panel) (Homo sapiens, UniProt Q5S007) (Q5S007 whole entry): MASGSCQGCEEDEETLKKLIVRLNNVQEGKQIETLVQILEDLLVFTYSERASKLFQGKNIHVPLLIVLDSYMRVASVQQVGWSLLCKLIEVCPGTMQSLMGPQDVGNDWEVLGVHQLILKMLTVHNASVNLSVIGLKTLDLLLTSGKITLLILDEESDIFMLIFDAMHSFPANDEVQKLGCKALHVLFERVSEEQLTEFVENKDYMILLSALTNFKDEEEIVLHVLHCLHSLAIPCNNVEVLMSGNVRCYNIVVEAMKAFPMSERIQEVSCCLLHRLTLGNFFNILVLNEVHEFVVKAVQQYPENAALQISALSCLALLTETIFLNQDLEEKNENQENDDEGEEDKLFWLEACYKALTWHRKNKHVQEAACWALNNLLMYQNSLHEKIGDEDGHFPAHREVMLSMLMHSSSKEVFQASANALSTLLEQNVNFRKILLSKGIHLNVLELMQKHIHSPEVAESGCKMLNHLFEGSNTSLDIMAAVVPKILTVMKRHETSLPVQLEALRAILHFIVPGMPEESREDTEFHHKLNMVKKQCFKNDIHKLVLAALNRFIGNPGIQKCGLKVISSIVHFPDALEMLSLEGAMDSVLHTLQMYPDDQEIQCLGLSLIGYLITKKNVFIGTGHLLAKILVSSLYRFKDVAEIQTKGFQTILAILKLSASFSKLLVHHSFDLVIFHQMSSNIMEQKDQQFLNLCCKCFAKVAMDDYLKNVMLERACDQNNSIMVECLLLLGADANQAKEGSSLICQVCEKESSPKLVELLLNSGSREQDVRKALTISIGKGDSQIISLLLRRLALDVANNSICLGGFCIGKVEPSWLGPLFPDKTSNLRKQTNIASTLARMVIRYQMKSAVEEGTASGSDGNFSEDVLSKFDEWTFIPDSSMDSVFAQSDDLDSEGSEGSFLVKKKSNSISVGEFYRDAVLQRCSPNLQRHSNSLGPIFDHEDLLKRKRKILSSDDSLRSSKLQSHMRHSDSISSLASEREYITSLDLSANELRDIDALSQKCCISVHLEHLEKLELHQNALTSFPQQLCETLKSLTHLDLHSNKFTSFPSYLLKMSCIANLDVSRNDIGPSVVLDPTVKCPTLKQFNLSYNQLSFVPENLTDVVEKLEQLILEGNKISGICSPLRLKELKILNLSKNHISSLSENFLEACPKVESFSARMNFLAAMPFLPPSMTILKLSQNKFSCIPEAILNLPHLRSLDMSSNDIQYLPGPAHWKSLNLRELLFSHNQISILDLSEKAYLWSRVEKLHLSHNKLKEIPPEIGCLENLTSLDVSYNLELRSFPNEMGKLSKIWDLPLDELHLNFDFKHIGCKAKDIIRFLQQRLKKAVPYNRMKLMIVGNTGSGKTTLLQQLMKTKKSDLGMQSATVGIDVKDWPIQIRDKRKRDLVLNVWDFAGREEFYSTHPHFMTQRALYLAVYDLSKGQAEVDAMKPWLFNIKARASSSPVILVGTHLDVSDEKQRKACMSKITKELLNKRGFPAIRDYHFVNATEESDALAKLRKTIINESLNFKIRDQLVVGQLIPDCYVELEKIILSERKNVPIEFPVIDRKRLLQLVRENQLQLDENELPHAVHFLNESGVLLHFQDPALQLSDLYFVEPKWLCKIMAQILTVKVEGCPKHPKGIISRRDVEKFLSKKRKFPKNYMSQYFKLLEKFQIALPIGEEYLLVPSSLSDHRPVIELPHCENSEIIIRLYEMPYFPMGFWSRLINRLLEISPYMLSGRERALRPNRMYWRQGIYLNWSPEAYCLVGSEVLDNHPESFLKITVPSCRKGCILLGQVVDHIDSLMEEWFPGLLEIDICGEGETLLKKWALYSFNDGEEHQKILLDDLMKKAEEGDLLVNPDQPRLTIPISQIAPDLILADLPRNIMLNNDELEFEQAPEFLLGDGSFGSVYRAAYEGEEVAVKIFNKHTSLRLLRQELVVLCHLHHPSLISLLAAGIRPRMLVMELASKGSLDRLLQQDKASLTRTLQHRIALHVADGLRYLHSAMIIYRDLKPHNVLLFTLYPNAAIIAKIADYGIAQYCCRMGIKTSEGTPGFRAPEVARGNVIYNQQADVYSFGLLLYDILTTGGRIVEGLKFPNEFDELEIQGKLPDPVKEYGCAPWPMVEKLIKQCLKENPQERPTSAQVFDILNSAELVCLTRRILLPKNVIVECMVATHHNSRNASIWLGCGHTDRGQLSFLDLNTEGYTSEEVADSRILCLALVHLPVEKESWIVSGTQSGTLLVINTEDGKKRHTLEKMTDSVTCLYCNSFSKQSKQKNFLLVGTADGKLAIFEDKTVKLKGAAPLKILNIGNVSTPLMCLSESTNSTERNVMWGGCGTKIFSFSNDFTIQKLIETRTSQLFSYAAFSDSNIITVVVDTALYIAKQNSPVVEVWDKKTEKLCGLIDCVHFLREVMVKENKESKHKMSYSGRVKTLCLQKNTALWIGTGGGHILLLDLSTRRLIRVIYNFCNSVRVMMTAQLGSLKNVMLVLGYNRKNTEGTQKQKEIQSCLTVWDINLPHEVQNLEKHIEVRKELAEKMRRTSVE

[6] = biological target: T2, kinases (KINOMEscan panel) (Homo sapiens, UniProt Q6PHR2); details: kinase ULK3; NEW KINOMEscan
T2 sequence (Q6PHR2 1-472): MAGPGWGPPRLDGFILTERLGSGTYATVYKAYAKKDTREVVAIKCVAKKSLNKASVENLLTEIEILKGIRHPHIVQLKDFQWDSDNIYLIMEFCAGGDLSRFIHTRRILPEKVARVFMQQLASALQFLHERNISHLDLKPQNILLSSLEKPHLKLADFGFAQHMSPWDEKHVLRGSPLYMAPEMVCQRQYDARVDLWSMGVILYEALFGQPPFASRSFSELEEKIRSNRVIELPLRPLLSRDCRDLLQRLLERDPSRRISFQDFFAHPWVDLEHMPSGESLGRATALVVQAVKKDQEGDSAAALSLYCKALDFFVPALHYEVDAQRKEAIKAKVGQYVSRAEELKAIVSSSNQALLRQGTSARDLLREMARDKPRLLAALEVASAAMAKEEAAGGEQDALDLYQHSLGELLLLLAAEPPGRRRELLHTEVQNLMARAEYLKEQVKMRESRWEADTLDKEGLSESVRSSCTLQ

[7] = biological target: T3, kinases (KINOMEscan panel) (Homo sapiens, UniProt Q96BR1); details: kinase SGK3; NEW KINOMEscan
T3 sequence (Q96BR1 1-496): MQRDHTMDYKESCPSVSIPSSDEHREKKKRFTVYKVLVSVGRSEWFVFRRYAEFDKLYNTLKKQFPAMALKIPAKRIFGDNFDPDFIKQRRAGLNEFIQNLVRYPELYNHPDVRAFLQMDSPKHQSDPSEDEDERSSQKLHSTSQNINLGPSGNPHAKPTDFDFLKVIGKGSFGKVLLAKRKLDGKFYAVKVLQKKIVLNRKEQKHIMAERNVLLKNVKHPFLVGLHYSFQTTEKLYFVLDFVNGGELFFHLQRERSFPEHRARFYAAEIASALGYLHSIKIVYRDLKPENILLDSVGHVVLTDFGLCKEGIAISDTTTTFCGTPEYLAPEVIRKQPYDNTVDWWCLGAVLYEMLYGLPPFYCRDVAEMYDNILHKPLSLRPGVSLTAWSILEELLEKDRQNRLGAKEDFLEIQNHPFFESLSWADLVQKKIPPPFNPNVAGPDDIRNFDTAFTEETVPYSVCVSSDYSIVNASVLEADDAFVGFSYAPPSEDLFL

[8] = biological target: kinases (KINOMEscan panel) (Homo sapiens, UniProt Q99558); details: kinase MAP3K14; NEW KINOMEscan
[9] = system: kinases (KINOMEscan panel); details: NEW KINOMEscan; for KINOMEscan EGFR(L747-E749del, A750P): kinase EGFR(L747-E749del, A750P); for KINOMEscan EGFR(L747-T751del,Sins): kinase EGFR(L747-T751del,Sins); for KINOMEscan FLT3(ITD): kinase FLT3(ITD)

Sequence of kinases (KINOMEscan panel) (Homo sapiens, UniProt P48729) (P48729 whole entry): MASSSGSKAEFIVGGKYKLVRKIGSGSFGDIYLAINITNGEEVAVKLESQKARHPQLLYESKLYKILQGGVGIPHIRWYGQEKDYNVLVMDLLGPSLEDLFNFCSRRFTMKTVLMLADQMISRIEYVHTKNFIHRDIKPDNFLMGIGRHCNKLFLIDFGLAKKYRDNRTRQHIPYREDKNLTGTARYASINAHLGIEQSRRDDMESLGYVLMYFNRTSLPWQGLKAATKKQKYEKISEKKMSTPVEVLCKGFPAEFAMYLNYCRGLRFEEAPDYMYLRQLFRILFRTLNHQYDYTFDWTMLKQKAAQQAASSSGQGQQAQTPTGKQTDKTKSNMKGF
Sequence of kinases (KINOMEscan panel) (Homo sapiens, UniProt P42336, C420R) (P42336 whole entry C420R): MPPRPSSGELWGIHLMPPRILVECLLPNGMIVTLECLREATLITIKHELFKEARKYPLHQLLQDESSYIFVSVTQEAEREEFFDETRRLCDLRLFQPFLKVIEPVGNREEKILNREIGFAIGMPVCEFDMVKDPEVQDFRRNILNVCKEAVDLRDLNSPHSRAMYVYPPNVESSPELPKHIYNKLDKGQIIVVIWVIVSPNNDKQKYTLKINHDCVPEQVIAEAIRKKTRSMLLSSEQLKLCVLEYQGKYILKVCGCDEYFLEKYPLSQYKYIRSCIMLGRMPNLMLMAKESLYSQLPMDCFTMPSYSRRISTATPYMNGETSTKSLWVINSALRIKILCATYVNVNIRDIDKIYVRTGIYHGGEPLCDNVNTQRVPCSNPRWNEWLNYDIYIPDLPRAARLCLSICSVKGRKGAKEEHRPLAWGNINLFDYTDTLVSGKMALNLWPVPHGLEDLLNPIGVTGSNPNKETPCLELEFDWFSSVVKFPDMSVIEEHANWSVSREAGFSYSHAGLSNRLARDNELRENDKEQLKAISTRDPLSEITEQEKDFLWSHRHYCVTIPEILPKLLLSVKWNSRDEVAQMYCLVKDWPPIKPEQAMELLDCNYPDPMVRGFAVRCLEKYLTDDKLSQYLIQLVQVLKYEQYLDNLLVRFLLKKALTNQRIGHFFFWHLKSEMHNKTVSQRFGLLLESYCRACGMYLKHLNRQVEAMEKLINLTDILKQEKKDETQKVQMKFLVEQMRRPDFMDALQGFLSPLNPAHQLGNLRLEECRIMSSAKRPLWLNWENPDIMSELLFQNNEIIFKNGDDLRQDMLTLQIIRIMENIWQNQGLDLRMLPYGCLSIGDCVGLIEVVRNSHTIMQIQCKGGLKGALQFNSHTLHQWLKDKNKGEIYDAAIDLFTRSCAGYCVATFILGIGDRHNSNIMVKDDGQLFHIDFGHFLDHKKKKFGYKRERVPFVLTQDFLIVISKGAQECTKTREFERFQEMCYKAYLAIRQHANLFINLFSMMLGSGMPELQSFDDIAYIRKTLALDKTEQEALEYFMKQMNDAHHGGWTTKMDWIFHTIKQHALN

| Compound | KINOMEscan PIK3CA(C420R) [1] | KINOMEscan CSNK1A1 [2] | KINOMEscan MERTK [3] | KINOMEscan MELK [4] | KINOMEscan LRRK2 [5] | KINOMEscan ULK3 [6] | KINOMEscan SGK3 [7] | KINOMEscan MAP3K14 [8] | KINOMEscan EGFR(L747-S752del, P753S) [9] | KINOMEscan FLT3(ITD,D835V) [9] | KINOMEscan FLT3(ITD,F691L) [9] | KINOMEscan PRKAA2 [9] | KINOMEscan EGFR(L747-E749del, A750P) [9] | KINOMEscan EGFR(L747-T751del,Sins) [9] | KINOMEscan FLT3(ITD) [9] | KINOMEscan PRKAA2 ([9]; kinase PRKAA2) |
| --- | --- | --- | --- | --- | --- | --- | --- | --- | --- | --- | --- | --- | --- | --- | --- | --- |
| Cc1cccc(-c2nc(N(C)c3ccc4ncsc4c3)c3ccccc3n2)n1 [NK-161] | 0 | 10 | 11 | 2 | 27 | 1 | 13 | 2 | 19 | 25 | 25 | 20 | 0 | 0 | 4 | 0 |
| Cc1cccc(-c2nc(Nc3ccc4nn(C)cc4c3)c3ccccc3n2)n1 [NK167] | 0 | 7 | 0 | 0 | 21 | 0 | 0 | 0 | 0 | 7 | 33 | 11 | 0 | 0 | 0 | 0 |

— PMC9851200, “Multiparameter phenotypic screening for endogenous TFEB and TFE3 translocation identifies novel chemical series modulating lysosome function” (Autophagy, 2022)
